Patent US8263601B2, “Deuterium substituted xanthine derivatives” (CoNCERT Pharmaceuticals, Inc., priority 2009, dated 2012)
Like-named read-outs stand apart in the source and are kept apart here.

Columns and labels:
[1] = Stability of compounds in rat whole blood (Example 35); assay type: in vitro ADME; settings: 5 μM, 37° C., 2 hours, FIG. 3
Description: This study was performed to evaluate the stability of the title compounds in rat whole blood. Because the ketone (or keto-compound; either pentoxifylline or 409) and its corresponding M-1 alcohol metabolite interconvert, levels of these components were measured after either the keto-compound was added to the blood or the M-1 was added. In other words, in some tests the keto-compound was the starting test compound and in other tests an M-1 metabolite was the starting test compound.
Fresh rat whole blood was obtained from ViviSource Laboratories, Waltham, Mass. Stock solutions (7.5 millimolar (mM)) of test compounds were prepared in dimethyl sulfoxide (DMSO). The 7.5 mM stock solutions were diluted to 500 micromolar (μM) in acetonitrile (ACN). To 990 microliters (μL) of blood pre-warmed to 37° C. for 7 minutes was added 10 μl, of 500 μM test compound to a final concentration of 5 μM. The test compounds were pentoxifylline, (S)-M1 metabolite of pentoxifylline, (R)-M1 metabolite of pentoxifylline, Compound 409, Compound 435(S), and Compound 435(R). The latter two test compounds are deuterated (S)-M1 and (R)-M1 metabolites, respectively, of Compound 409. The reaction mixture was incubated at 37° C. Aliquots (50 μL) were removed at 0 min, 5 min, 15 min, 30 min, 1 hour and 2 hours following the addition of test compound and added to 96-well plates containing 150 μL of ice cold acetonitrile with an internal standard to stop the reaction. The plates were stored at −20° C. for 20 minutes after which 100 μL of 50% acetonitrile/water was added to the wells of the plate prior to centrifugation to pellet precipitated proteins. A 200-μL aliquot of each supernatant was transferred to another 96-well plate and analyzed by LC-MS/MS using an Applied Bio-systems API 4000 mass spectrometer for amounts of the administered compound and its specific metabolite listed in Table 11 below.
The results of this study are depicted in FIGS. 2 and 3.

[2] = Compound stability in human liver microsomes (Example 36); assay type: in vitro ADME; settings: 30 minutes
Description: Example 36 is similar to Example 35 in design, except that human liver microsomes were used instead of rat whole blood to study the metabolism of the compounds.
Human liver microsomes (20 mg/mL) were obtained from Xenotech, LLC (Lenexa, Kans.). β-nicotinamide adenine dinucleotide phosphate, reduced form (NADPH), magnesium chloride (MgCl2), and dimethyl sulfoxide (DMSO) were purchased from Sigma-Aldrich.
Stock solutions containing 7.5 mM of test compounds (pentoxifylline, (S)-M1 metabolite, (R)-M1 metabolite, Compound 409, Compound 435(S), and Compound 435(R)) were prepared in DMSO. The 7.5-mM stock solutions were diluted to 250 μM in acetonitrile (ACN). The human liver microsomes were diluted to 2.5 mg/mL in 0.1 M potassium phosphate buffer, pH 7.4, containing 3 mM MgCl2. The diluted microsomes were added to wells of a 96-well deep-well polypropylene plate in triplicate. 10 μL of the 250 μM test compound was added to the microsomes and the mixture was pre-warmed to 37° C. for 10 minutes. Reactions were initiated by addition of pre-warmed NADPH solution. The final reaction volume was 0.5 mL and contained 2.0 mg/mL human liver microsomes, 5 μM test compound, and 2 mM NADPH in 0.1M potassium phosphate buffer, pH 7.4, and 3 mM MgCl2. The reaction mixtures were incubated at 37° C., and 50-μL aliquots were removed at 0, 5, 10, 20, and 30 minutes and added to shallow-well 96-well plates which contained 50 μL of ice-cold acetonitrile with internal standard to stop the reactions. The plates were stored at 4° C. for 20 minutes after which 100 μL of water was added to the wells of the plate before centrifugation to pellet precipitated proteins. Supernatants were transferred to another 96-well plate and analyzed for the amount of the administered compound and its specific metabolite (listed in Table 11 above) by LC-MS/MS using an Applied Bio-systems API 4000 mass spectrometer.
The results of this study are depicted in FIGS. 4 and 5. […]

[3] = Pharmacokinetic study of 435(S) and other representative compounds in chimps after oral dosing (Example 40); assay type: in vivo; settings: species named in label measured in plasma
Description: 435(S) and representative compounds 121(S), 137(S), 421(S) and 437(S) were separately dissolved in warm (65° C.) water at a concentration [[of 10 mg/mL]]. The same protocol described for Example 39 was then followed for each representative compound.

[4] = female, plasma, po, 65 mg, Table 17 i): female chimp, 435(S) and 121(S), read-out: AUC0-12 Female
[5] = female, plasma, po, 65 mg, Table 17 ii): female chimp, 435(S) and 137(S), read-out: AUC0-12 Female
[6] = female, plasma, po, 65 mg, Table 17 iii): female chimp, 435(S) and 421(S), read-out: AUC0-12 Female
[7] = female, plasma, po, 65 mg, Table 17 iv): female chimp, 435(S) and 437(S), read-out: AUC0-12 Female
[8] = male, plasma, po, 65 mg, Table 17 i): male chimp, 435(S) and 121(S), read-out: AUC0-12 Male
[9] = male, plasma, po, 65 mg, Table 17 ii): male chimp, 435(S) and 137(S), read-out: AUC0-12 Male
[10] = male, plasma, po, 65 mg, Table 17 iii): male chimp, 435(S) and 421(S), read-out: AUC0-12 Male
[11] = male, plasma, po, 65 mg, Table 17 iv): male chimp, 435(S) and 437(S), read-out: AUC0-12 Male

Row | SMILES | Keto-compound (pentoxifylline or Compound 409) formed from M-1 alcohol [1] | Keto-compound (pentoxifylline or Compound 409) formed from M-1 alcohol ([2]; human liver microsomes 2.0 mg/mL, 5 μM, NADPH, FIG. 5 columns C and D) | More pentoxifylline produced from (S)-M1 than Compound 409 produced from Compound 435 (S) ([2]; human liver microsomes) | AUC(0-t) [3, 4] | AUC(0-t) [3, 5] | AUC(0-t) [3, 6] | AUC(0-t) [3, 7] | AUC(0-t) [3, 8] | AUC(0-t) [3, 9] | AUC(0-t) [3, 10] | AUC(0-t) [3, 11]
1 | C[C@H](O)CCCCn1c(=O)c2c(ncn2C)n(C)c1=O [(S)-M1, reference compound] | appreciable amount of pentoxifylline present | significant amount of pentoxifylline present | Approximately 30% | – | – | – | – | – | – | – | –
2 | [2H]c1nc2c(c(=O)n(CCCC([2H])([2H])[C@@]([2H])(O)C([2H])([2H])[2H])c(=O)n2C)n1C([2H])([2H])[2H] [Compound 435(S), (S)-8-d1-1-(4,4,5,6,6,6-d6-5-Hydroxyhexyl)-3-methyl-7-(methyl-d3)-1H-purine-2,6(3H,7H)-dione] | not detected | – | – | 133 ng·h/mL | 243 ng·h/mL | 947 ng·h/mL | 1140 ng·h/mL | 354 ng·h/mL | 100 ng·h/mL | 881 ng·h/mL | 686 ng·h/mL
3 | [2H]c1nc2c(c(=O)n(CCCC(=O)O)c(=O)n2C)n1C([2H])([2H])[2H] [Deuterated M5 (M5a)] | – | – | – | 670 ng·h/mL | 754 ng·h/mL | 376 ng·h/mL | 306 ng·h/mL | 585 ng·h/mL | 719 ng·h/mL | 500 ng·h/mL | 562 ng·h/mL
